{"source": "patent US5654451A", "about": "“Amino acids and peptides having modified C-terminals and modified N-terminals” (Magainin Pharmaceuticals Inc., priority 1995, dated 1997)", "test_in_all_cases": "Antimicrobial assay (MIC, microtiter broth dilution)", "type_in_all_cases": "cell-based", "key": {"[1]": {"tested_on": "C. kefyr", "conditions": "strain 28838"}, "[2]": {"tested_on": "C. tropicalis"}, "[3]": {"tested_on": "E. faecium", "conditions": "strain 26143"}, "[4]": {"tested_on": "T. rubrum", "conditions": "strain 36262"}, "[5]": {"tested_on": "M. canis", "conditions": "strain 11621"}, "[6]": {"tested_on": "B. fragilis", "conditions": "strain 25285"}, "[7]": {"tested_on": "E. floccosum", "conditions": "strain 52062"}, "[8]": {"tested_on": "T. mentagrophytes", "conditions": "strain 18748"}, "[9]": {"tested_on": "S. marcescens"}, "[10]": {"tested_on": "C. albicans", "method": "(§1) The procedure for the antimicrobial assay is based upon the guidelines of the National Committee for Clinical Laboratory Standards, Document M7-T2, Volume 8, No. 8, 1988.\n(§2) 1-5×10^5 CFUs/ml of either S. aureus ATCC 25923, E. coli ATCC 25922, P. aeruginosa ATCC 27853, or C. albicans were added to the wells in full strength Mueller Hinton broth (BBL 11443) from a mid-log culture. The inoculum is standardized spectrophotometrically at 600 nm and is verified by colony counts. The plates are incubated for 16-20 hours at 37° C., and the minimal inhibitory concentrations (MIC) for the compounds are determined. Minimal inhibitory concentration is defined as the lowest concentration of amino acid or peptide which produces a clear well in the microtiter plate."}, "[11]": {"tested_on": "E. coli", "method": "as §1, §2"}, "[12]": {"tested_on": "S. aureus", "method": "as §1, §2"}, "[13]": {"tested_on": "P. aeruginosa", "method": "as §1, §2"}, "[14]": {"tested_on": "L. fermentum", "conditions": "strain 23271"}, "[15]": {"tested_on": "C. parapsilosis"}, "[16]": {"tested_on": "E. faecalis"}, "[17]": {"tested_on": "C. difficile"}, "[18]": {"tested_on": "S. epidermidis"}, "[19]": {"tested_on": "P. mirabilis"}}}
{"smiles": "N=C(N)NC(Cc1ccc(F)cc1)C(=O)NCCCCCCCCCCCCNC(=O)C(Cc1ccc(F)cc1)NC(=N)N", "note": "(stereo not drawn) [Compound 11, 1,12-[bis-N-α-amidino-p-fluoro-phenylalanyl]diaminododecane]", "values": [{"measurement": "MIC C. kefyr 28838", "setting": "[1]", "value": 1, "unit": "µg/mL"}, {"measurement": "MIC C. tropicalis 13803", "setting": "[2]; strain 13803", "value": 2, "unit": "µg/mL"}, {"measurement": "MIC C. tropicalis 28707", "setting": "[2]; strain 28707", "value": 0.5, "unit": "µg/mL"}, {"measurement": "MIC E. faecium 26143", "setting": "[3]", "value": 1, "unit": "µg/mL"}, {"measurement": "MIC T. rubrum 36262", "setting": "[4]", "value": 8, "unit": "µg/mL"}, {"measurement": "MIC M. canis 11621", "setting": "[5]", "value": 4, "unit": "µg/mL"}, {"measurement": "MIC B. fragilis 25285", "setting": "[6]", "value": 2, "unit": "µg/mL"}, {"measurement": "MIC E. floccosum 52062", "setting": "[7]", "value": 4, "unit": "µg/mL"}, {"measurement": "MIC T. mentagrophytes 18748", "setting": "[8]", "value": 4, "unit": "µg/mL"}, {"measurement": "MIC S. marcescens 18963", "setting": "[9]; strain 18963", "value": 16, "unit": "µg/mL"}, {"measurement": "MIC S. marcescens 23420", "setting": "[9]; strain 23420", "value": "> 256", "unit": "µg/mL"}, {"measurement": "MIC C. albicans", "setting": "[10]; Table I", "value": 16, "unit": "µg/mL"}, {"measurement": "MIC C. albicans 14053", "setting": "[10]; strain 14053", "value": "2,64 μg/ml"}, {"measurement": "MIC E. coli", "setting": "[11]; Table I, E. coli ATCC 25922", "value": 4, "unit": "µg/mL"}, {"measurement": "MIC E. coli 25922", "setting": "[11]; strain 25922 (Tables II-V)", "value": "2,16 μg/ml"}, {"measurement": "MIC S. aureus", "setting": "[12]; Table I, S. aureus ATCC 25923", "value": 2, "unit": "µg/mL"}, {"measurement": "MIC S. aureus 1093", "setting": "[12]; strain 1093", "value": 2, "unit": "µg/mL"}, {"measurement": "MIC S. aureus 1096", "setting": "[12]; strain 1096", "value": 2, "unit": "µg/mL"}, {"measurement": "MIC P aeruginosa", "setting": "[13]; Table I, P. aeruginosa ATCC 27853", "value": 8, "unit": "µg/mL"}, {"measurement": "MIC P. aeruginosa 1133", "setting": "[13]; strain 1133", "value": 32, "unit": "µg/mL"}, {"measurement": "MIC P. aeruginosa 27853", "setting": "[13]; strain 27853 (Tables II-V)", "value": "8,16 μg/ml"}, {"measurement": "MIC P. aeruginosa El Salvador", "setting": "[13]; strain El Salvador", "value": 128, "unit": "µg/mL"}, {"measurement": "MIC L. fermentum 23271", "setting": "[14]", "value": 1, "unit": "µg/mL"}, {"measurement": "MIC C. parapsilosis 10232", "setting": "[15]; strain 10232", "value": "1,2 μg/ml"}, {"measurement": "MIC C. parapsilosis 22109", "setting": "[15]; strain 22109", "value": 1, "unit": "µg/mL"}, {"measurement": "MIC E. faecalis 23296", "setting": "[16]; strain 23296", "value": 1, "unit": "µg/mL"}, {"measurement": "MIC E. faecalis 29212", "setting": "[16]; strain 29212", "value": 1, "unit": "µg/mL"}, {"measurement": "MIC C. difficile P324", "setting": "[17]; strain P324", "value": 2, "unit": "µg/mL"}, {"measurement": "MIC C. difficile TTU614", "setting": "[17]; strain TTU614", "value": 4, "unit": "µg/mL"}, {"measurement": "MIC S. epidermidis 1050", "setting": "[18]; strain 1050", "value": 1, "unit": "µg/mL"}, {"measurement": "MIC S. epidermidis 1090", "setting": "[18]; strain 1090", "value": 2, "unit": "µg/mL"}, {"measurement": "MIC P. mirabilis 23147", "setting": "[19]; strain 23147", "value": "> 256", "unit": "µg/mL"}, {"measurement": "MIC P. mirabilis 24231", "setting": "[19]; strain 24231", "value": 7256, "unit": "µg/mL"}]}
